Source: patent EP0083204A2, “2-Aminophenol derivatives and process for their preparation” (ONO PHARMACEUTICAL CO., LTD., priority 1981, dated 1983)
Where a name gives a salt, the structure may show the parent alone.

How the values were obtained:
5-lipoxygenase [1] = molecular target: T1, 5-lipoxygenase (Cavia porcellus, UniProt A0A286X958); experiment: assay system evaluating only the inhibitory activity on 5-lipoxygenase (105,000 x g supernate of sonicated polymorphonuclear leukocytes); format: biochemical; settings: supernate of sonicated guinea pig polymorphonuclear leukocytes, 30°C, 5 minutes, 1 mM calcium chloride; production of 5-HETE, 5,12-diHETE and leukotriene B; read-out: concentrations required to produce 50% inhibitions on 5-lipoxygenase
T1 construct: The supernate was used as an enzyme throughout this work; from tissue; host or cells: 105,000 x g supernatant of sonicated, casein-elicited guinea pig polymorphonuclear leukocytes
T1 sequence (A0A286X958 1-674): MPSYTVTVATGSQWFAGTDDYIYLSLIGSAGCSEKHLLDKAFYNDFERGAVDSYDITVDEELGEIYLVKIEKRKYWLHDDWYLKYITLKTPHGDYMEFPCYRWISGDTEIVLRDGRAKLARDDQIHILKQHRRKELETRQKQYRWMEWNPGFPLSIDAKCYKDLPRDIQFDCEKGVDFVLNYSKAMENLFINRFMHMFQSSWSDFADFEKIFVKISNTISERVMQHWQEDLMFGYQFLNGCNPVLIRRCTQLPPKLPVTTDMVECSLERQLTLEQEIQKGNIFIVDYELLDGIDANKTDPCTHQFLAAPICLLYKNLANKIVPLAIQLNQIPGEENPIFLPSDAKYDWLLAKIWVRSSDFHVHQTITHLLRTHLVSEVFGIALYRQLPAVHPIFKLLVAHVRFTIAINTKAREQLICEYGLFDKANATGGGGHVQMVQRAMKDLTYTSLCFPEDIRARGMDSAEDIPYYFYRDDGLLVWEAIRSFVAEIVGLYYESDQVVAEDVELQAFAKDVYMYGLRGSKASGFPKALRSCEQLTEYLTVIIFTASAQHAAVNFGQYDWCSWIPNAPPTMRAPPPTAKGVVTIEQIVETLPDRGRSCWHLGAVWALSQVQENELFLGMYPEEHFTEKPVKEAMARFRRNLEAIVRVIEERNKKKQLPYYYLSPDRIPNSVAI
Experimental: The experiments for evaluating only the inhibitory activity on 5-lipoxygenase were carried out as follows: Guinea pig was treated by casein and harvested polymorphonuclear leukocytes from cavity were sonicated, followed by the centrifugation at 105,000 x g. The supernate was used as an enzyme throughout this work. The supernate (100 - 500 ug of protein) was incubated for 5 minutes at 30°C with [^14C] arachidonic acid and 1 mM calcium chloride in the presence or in the absence of test compound. The reaction was terminated by the addition of ether. Ether extract was separated by thin layer chromatography using silica gel plates to observe production of 5-HETE, 5,12-diHETE and leukotriene B. In this assay system, the concentrations for 50% inhibitions on 5- lipoxygenase were evaluated by using the concentrations of compounds of the present invention required 50% inhibitions on the production of 5-HETE, 5,12-diHETE and leukotrien B.

mice = experiment: acute toxicity by intravenous administration; format: in vivo, mouse; settings: intravenously administered to tail vein in ten mice at the dose of 30 mg/kg
Experimental: On the other hand, all extent of the compounds of the present invention were confirmed that their acute toxicities were more than 30 mg/kg by intravenous administration. Therefore, 2-aminophenol derivatives of the present invention may be considered to be sufficiently safe and suitable for medical use.

cyclooxygenase = experiment: standard assay system using polymorphonuclear leukocytes (production of HHT or TXB2 from [14C] arachidonic acid); format: cell-based; settings: intact polymorphonuclear leukocytes from guinea pig, 4 x 10^7 cells, 37°C, 5 minutes, read-out: concentrations for 50% inhibitions on cyclooxygenase
Experimental: (§1) For example, in standard assay system using polymorphonuclear leukocytes from guinea pig (details of experiments were described hereafter), (a) the concentrations of 2-amino-4-(4-methylphenylthio)phenol hydrochloride for 50% inhibitions on 5-lipoxygenase and on cyclooxygenase were 0.2 µM and 0.3 µM, respectively, (b) the concentrations of 2-amino-4-phenylthiophenol hydrochloride for 50% inhibitions on 5- lipoxygenase and on cyclooxygenase were 0.1 µM and 0.3 uM, respectively and (c) the concentrations of 2-amino-4-(4-chlorophenylthio)phenol hydrochloride for 50% inhibitions on 5-lipoxygenase and on cyclooxygenase were 0.5 µM and 0.3 µM, respectively. Therefore, it is comfirmed that these compounds (a), (b) and (c) inhibit both 5-lipoxygenase and cyclooxygenase at the same time at very low concentrations.
(§2) The experiments for screening using polymorphonuclear leukocytes were carried out as follows: The reaction mixture (0.1 ml) containing 5 µmole of potassium phosphate at pH 7.4, 0.1 µmole of calcium chloride, polymorphonuclear leukocytes prepared from guinea pigs (4 x 10^7 cells) and test compound, was preincubated for 5 minutes at 37°C. The reaction was started by the addition of [^14C] arachidonic acid ([…] dpm, 1.8 nmole), followed by the incubation at 37°C for 5 minutes. The reaction was terminated by the addition of 0.3 ml of a mixture of ether/ methanol/lM citric acid (30/4/1). The organic phase (20 µl) was applied to silica gel plate. Thin layer chromatography was performed to separate each product with solvent system of ether/petroleum ether/acetic acid (85/15/0.1).
(§3) Activity of 5-lipoxygenase and cyclooxygenase were calculated from the measurements of the production of 5-HETE, and 12L-hydroxy-5,8,10-[…] acid (i.e. HHT) or thromboxane B2 (i.e. TXB2), respectively [it has been known that HHT and TXB2 are the last products of the system concerning cyclooxygenase in the arachidonate cascade]. […]

5-lipoxygenase [2] = molecular target: T1, 5-lipoxygenase; experiment: standard assay system using polymorphonuclear leukocytes (production of 5-HETE from [14C] arachidonic acid); format: cell-based; settings: intact polymorphonuclear leukocytes from guinea pig, 4 x 10^7 cells, 37°C, 5 minutes, read-out: concentrations for 50% inhibitions on 5-lipoxygenase
Experimental: as §1, §2, §3

Row | IC50 (5-lipoxygenase [1]) | Compound | mortality (mice) | IC50 (cyclooxygenase) | IC50 (5-lipoxygenase [2])
1 | 480 nM | Cc1cc(C)c(Sc2ccc(O)c(N)c2)c(C)c1 [2-Amino-4-(2,4,6-trimethylphenylthio)phenol hydrochloride] | – | – | –
2 | 1500 nM | Nc1cc(Sc2ccc(O)c(N)c2)ccc1O [2-Amino-4-(3-amino-4-hydroxyphenylthio)phenol] | – | – | –
3 | 300 nM | Nc1cc(Sc2ccc(Cl)cc2)ccc1O [2-Amino-4-(4-chlorophenylthio)phenol hydrochloride] | – | 300 nM | 500 nM
4 | 320 nM | CC(C)(C)c1ccc(Sc2ccc(O)c(N)c2)cc1 [2-Amino-4-(4-tert-butylphenylthio)phenol hydrochloride] | – | – | –
5 | 11000 nM | Nc1cc([S+]([O-])c2ccccc2)ccc1O (stereo not drawn) [2-amino-4-benzenesulfinylphenol, 2-Amino-4-benzenesulfinylphenol] | – | – | –
6 | 18000 nM | Nc1cc(NC(=O)c2ccccc2)ccc1O [N-(3-Amino-4-hydroxyphenyl)benzamide hydrochloride] | – | – | –

Continued, compound first:

Row | Compound | IC50 (5-lipoxygenase [1]) | mortality (mice) | IC50 (cyclooxygenase) | IC50 (5-lipoxygenase [2])
7 | Cl.Nc1cc(-c2nc3ccccc3s2)ccc1O [2-Amino-4-(2-benzothiazolyl)phenol hydrochloride] | 230 nM | no mouse was dead | – | –
8 | Cc1ccc(Sc2ccc(O)c(N)c2)cc1.Cl [2-Amino-4-(4-methylphenylthio)phenol hydrochloride] | 200 nM | no mouse was dead | 300 nM | 200 nM
9 | Nc1cc(Sc2ccc(O)cc2)ccc1O [2-amino-4-(4-hydroxyphenylthio)phenol, 2-Amino-4-(4-hydroxyphenylthio)phenol] | 460 nM | – | – | –
10 | Nc1cc(C#Cc2ccccc2)ccc1O [2-amino-4-phenylethynylphenol, 2-Amino-4-phenylethynylphenol] | 690 nM | no mouse was dead | – | –
11 | Nc1cc(Sc2ccccc2)ccc1O [2-amino-4-phenylthiophenol hydrochloride, 2-Amino-4-phenylthiophenol hydrochloride] | 310 nM | no mouse was dead | 300 nM | 100 nM
